Molecules are shown by their SMILES.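 Cultured in 96-well plates, cells were exposed to test compound for 48 hours across five concentrations. Here, GI50 denotes the concentration required for 50% inhibition of growth.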 Calls of active or inactive are those of the source. Cut-off read from the data, not from the text of the source: active = GI50 up to about 1.1 µM and inactive = higher. A value given as a limit tells only on which side of the number the result lay.

Test systems include A498; LOX IMVI; IGROV-1; SF-539; SNB-19; HCT-116; MOLT-4; SN12C; MCF7; PC-3; SK-MEL-2; SW-620; ACHN; RXF 393; Malme-3M; DU-145; COLO 205; KM12; NCI-H23; M14.
Common to all, as to assay: NCI-60 cell line screen, 48 h

For `Cc1cc(S(=O)(=O)n2ccnc2O)c(SCCCN(C)C)cc1Cl`, the GI50 with A498, in the test with LOX IMVI, in the test on IGROV-1, with SF-539, in the test on SNB-19 and with HCT-116 was > 100 µM (inactive) throughout. Moreover, the GI50 in the test with MOLT-4, in the test with SN12C, with MCF7, in the test with PC-3, in the test with SK-MEL-2 and in the test with SW-620 was > 100 µM (inactive) each time. For the same compound, the GI50 in the test with ACHN, in the test on RXF 393, with Malme-3M, with DU-145, in the test with COLO 205 and with KM12 was > 100 µM (inactive) in each case. In addition, the GI50 in the test on NCI-H23 and with M14 was > 100 µM (inactive) each time.

Take `CCCCCCCCCCCCCCCCCCNc1ccn(C2OC(CO)C(O)C2O)c(=O)n1` (centres undefined): the GI50 is > 100 µM (inactive) in the test with A498; > 62.8 µM (inactive) with LOX IMVI; 14.9 µM (inactive) in the test on IGROV-1; > 100 µM (inactive) in the test on SF-539; > 25.4 µM (inactive) in the test on SNB-19; > 100 µM (inactive) with HCT-116. For the same compound, the GI50 was 4.58 µM (inactive) with MOLT-4; > 100 µM (inactive) in the test with SN12C; 57.1 µM (inactive) with MCF7; 2.45 µM (inactive) in the test with PC-3; > 100 µM (inactive) in the test on SK-MEL-2; > 100 µM (inactive) in the test with SW-620. The GI50 in the test on ACHN was > 100 µM (inactive); in the test with RXF 393 it was 7.66 µM (inactive); in the test on Malme-3M, > 100 µM (inactive); in the test with DU-145, > 100 µM (inactive); in the test on COLO 205, 38 µM (inactive); in the test with KM12, 84.1 µM (inactive). For the same compound, the GI50 was > 100 µM (inactive) in the test with NCI-H23 and 55.5 µM (inactive) in the test with M14.

Consider `CC1=CCCC2C1(C)CCC(C)C2(C)Cc1cc(O)ccc1O` (centres undefined), for which the GI50 was 12.9 µM (inactive) with A498; 5.48 µM (inactive) in the test on LOX IMVI; 5.94 µM (inactive) with IGROV-1; 8.34 µM (inactive) with SF-539; 5.68 µM (inactive) in the test with SNB-19; 4 µM (inactive) in the test on HCT-116. The GI50 with MOLT-4 was 2.43 µM (inactive); in the test on SN12C, 8.3 µM (inactive); in the test on MCF7, 5.62 µM (inactive); in the test with PC-3, 5.75 µM (inactive); with SK-MEL-2, 9.06 µM (inactive); in the test on SW-620, 6.12 µM (inactive). For the same compound, the GI50 with ACHN is 11.9 µM (inactive); with RXF 393, 7.6 µM (inactive); with Malme-3M it was 17.7 µM (inactive); in the test with DU-145 it was 15 µM (inactive); in the test with COLO 205 it was 14.8 µM (inactive); in the test on KM12 it was 5.94 µM (inactive). For the same compound, the GI50 in the test with NCI-H23 is 4.44 µM (inactive); in the test on M14, 14.4 µM (inactive).

Consider `COC(=O)CCc1c(Cc2ccc[nH]2)[nH]c(C(=O)OCc2ccccc2)c1C`, for which the GI50 in the test on A498 is 28.9 µM (inactive); with LOX IMVI it was 19.7 µM (inactive); in the test with IGROV-1, 15.6 µM (inactive); in the test with SF-539 it was 19.1 µM (inactive); in the test with SNB-19 it was 28.2 µM (inactive); in the test with HCT-116, 18.6 µM (inactive). Moreover, the GI50 is 24.9 µM (inactive) with MOLT-4; 18.1 µM (inactive) with SN12C; 18.5 µM (inactive) with MCF7; 18.2 µM (inactive) with PC-3; 15.4 µM (inactive) in the test on SK-MEL-2; 21.6 µM (inactive) in the test with SW-620. In addition, the GI50 was 23.1 µM (inactive) in the test on ACHN; 20.8 µM (inactive) in the test with RXF 393; 18.9 µM (inactive) in the test with Malme-3M; 75.3 µM (inactive) with DU-145; 17.5 µM (inactive) in the test with COLO 205; 16.3 µM (inactive) in the test with KM12. Further, the figures for the GI50 in the test on NCI-H23 and in the test on M14 were 21.2 µM (inactive) and 16.8 µM (inactive), respectively.

For `CC(C)(C)OC(=O)N1Cc2cc(O)ccc2C[C@H]1C(=O)O`, the GI50 in the test with A498, in the test on LOX IMVI, in the test with IGROV-1, in the test on SF-539, in the test on SNB-19 and in the test on HCT-116 was > 100 µM (inactive) throughout. The GI50 in the test on MOLT-4, with SN12C, in the test with MCF7, in the test on PC-3, in the test with SK-MEL-2 and in the test with SW-620 was > 100 µM (inactive) in each case. In addition, the GI50 with ACHN, in the test on RXF 393, with Malme-3M, with DU-145, in the test on COLO 205 and in the test with KM12 was > 100 µM (inactive) throughout. The GI50 with NCI-H23 is > 100 µM (inactive).

Turning to `COc1cc2c(cc1OC)C(=O)/C(=C/c1cc(Cl)cc(Cl)c1)C2`, the GI50 in the test on A498 was 17 µM (inactive); with LOX IMVI, 4.24 µM (inactive); in the test on IGROV-1, 2.65 µM (inactive); with SF-539, 2.49 µM (inactive); with SNB-19 it was > 26.4 µM (inactive); in the test with HCT-116, 3.58 µM (inactive). Also, the GI50 in the test with MOLT-4 is 5.08 µM (inactive); with SN12C, 5.93 µM (inactive); with MCF7, 2.99 µM (inactive); in the test on PC-3 it was 4.03 µM (inactive); in the test with SK-MEL-2 it was 23.5 µM (inactive); in the test with SW-620, 3.79 µM (inactive). In addition, the GI50 is 7.91 µM (inactive) in the test with ACHN; 7.41 µM (inactive) in the test with RXF 393; 8.51 µM (inactive) in the test with Malme-3M; 10.6 µM (inactive) in the test with DU-145; 6.21 µM (inactive) in the test on COLO 205; 1.38 µM (inactive) in the test on KM12. Besides, the GI50 is 7.66 µM (inactive) in the test on NCI-H23 and 4.18 µM (inactive) in the test on M14.

In the case of `c1ccc2c(NCCCCCCNc3c4ccccc4nc4ccccc34)c3ccccc3nc2c1`, the GI50 in the test on A498 was 1.25 µM (inactive); in the test with LOX IMVI, 0.105 µM (active); in the test with IGROV-1, 0.166 µM (active); in the test on SF-539 it was 0.108 µM (active); in the test on SNB-19, 0.649 µM (active); with HCT-116, 0.0392 µM (active). For the same compound, the GI50 in the test on MOLT-4 is 0.0149 µM (active); in the test with SN12C, 0.137 µM (active); in the test on MCF7, 0.155 µM (active); with PC-3 it was 0.445 µM (active); in the test on SK-MEL-2, 1.26 µM (inactive); in the test with SW-620, 0.0458 µM (active). Moreover, the GI50 in the test with ACHN was 0.23 µM (active); with RXF 393 it was 0.191 µM (active); in the test with Malme-3M, 1.17 µM (inactive); in the test on DU-145, 0.632 µM (active); in the test with COLO 205 it was 0.235 µM (active); with KM12, 0.215 µM (active). Further, the GI50 in the test on NCI-H23 was 0.274 µM (active); in the test with M14, 1.23 µM (inactive).

The values above are taken from ChEMBL document CHEMBL1201862, “PubChem BioAssay data set” (2004).
